Test results as given in patent US10149837B2, “Selective agonists of beta-adrenergic type 3 receptors (BAR3) and use thereof” (UNIVERSITA' DEGLI STUDI DI BARI, priority 2015, dated 2018).
Entries after “also recorded” stand apart in the source; their conditions may differ.

Columns and labels:
AQP2 = assay: kidney slices: AQP2 localisation by confocal laser scanning after stimulation; format: cell-based, mice; conditions: slices of vital tissue from murine C57BL-6 kidneys, 45 minutes of stimulation
Description: By the technique of “kidney slices”, thin slices of vital tissue from murine C57BL-6 kidneys have been obtained which, maintained in culture medium and appropriate atmosphere, have been stimulated with agonists able to increase the intracellular levels of cAMP (forskolin and vasopressin) and with the agonist of murine BRL37344 BAR3. After 45 minutes of stimulation the tissues have been fixed, marked for AQP2 and observed by confocal laser scanning.

[1] = test system: conditional knockout mice for AVPR2; assay: diuresis and urine osmolality in the animal model of X-linked nephrogenic diabetes insipidus (metabolic cage); format: in vivo
Description: At one hour from the injection of the compound, the diuresis of the treated mice is set to zero compared to control animals.
In the mouse affected by nephrogenic diabetes insipidus (X-NDI) for conditional deletion of the AVPR2 receptor, the compound BRL37344 has been administered by intraperitoneal injection at the dosage of 0.6 mg/Kg. Five animals received the compound whereas as many control animals received the vehicle only (physiological saline). The cumulative diuresis has been measured in metabolic cage in both animal groups.
The data obtained are in line with a transient effect induced by the stimulation of the renal BAR3 receptors by BRL37344.

[2] = X-NDI animal model, summary statement, no time point
[3] = X-NDI mice, 0.6 mg/Kg intraperitoneal, second hour after injection, vs control group, acetic acid sodium hydrate, 0.6 mg/kg

Structure (SMILES)	apical membrane expression (repositioning) of AQP2 (AQP2; acetic acid sodium hydrate)	diuresis [1, 2]	urine osmolality [1, 2]	cumulative diuresis ([1]; X-NDI mice, 0.6 mg/Kg intraperitoneal, end of third hour after injection, vs control group, acetic acid sodium hydrate, 0.6 mg/kg)	cumulative diuresis ([1]; X-NDI mice, 0.6 mg/Kg intraperitoneal, first hour after injection, vs control group)	cumulative diuresis [1, 3]	urine osmolality [1, 3]	urine osmolality ([1]; X-NDI mice, 0.6 mg/Kg intraperitoneal, third hour after injection, vs control group, acetic acid sodium hydrate, 0.6 mg/kg)	apical membrane expression (repositioning) of AQP2 (AQP2)
C[C@H](Cc1ccc(OCC(=O)O)cc1)NC[C@H](O)c1cccc(Cl)c1.O.[Na] (relative stereo) [BRL37344, (±)-(R*,R*)-[4-[2-[[2-(3-Chlorophenyl)-2-hydroxyethyl]amino]propyl]phenoxy] acetic acid sodium hydrate]	able to increase the apical levels of AQP2 with an effect comparable to that produced by vasopressin; also recorded: determines a repositioning of the marking of AQP2 on the apical membrane	drastic reduction of diuresis	increase of urine osmolality	still drastically reduced; also recorded: still remained statistically lower than that of the control group	set to zero	drastically reduced; also recorded: statistically reduced compared to the control group	significantly increased	tendency to increase although not statistically significant; also recorded: on average higher although not statistically different from that of the control group	
NC(=O)CC[C@@H]1NC(=O)[C@H](Cc2ccccc2)NC(=O)[C@H](Cc2ccc(O)cc2)NC(=O)[C@@H](N)CSSC[C@@H](C(=O)N2CCC[C@H]2C(=O)N[C@@H](CCCN=C(N)N)C(=O)NCC(N)=O)NC(=O)[C@H](CC(N)=O)NC1=O [Vasopressin, vasopressin]									translocates AQP2 on the apical membrane of the tubular cells
